# Source: ChEMBL document CHEMBL3885881, “DrugMatrix”
# Species on record: Rattus norvegicus
# Assay: DrugMatrix - Regimen: Daily Repeat
# Assay type: toxicity, organism-based, Sprague-Dawley
# Parameters: regimen Daily Repeat, gender Male, age 6-8 weeks
# Conditions: in vivo, po, route oral GAVAGE, vehicle .5 % CMC; for ABSOLUTE BASOPHIL / ABSOLUTE EOSINOPHIL / ABSOLUTE LYMPHOCYTE / ABSOLUTE MONOCYTE / ABSOLUTE SEGMENTED NEUTROPHIL / BASOPHIL / EOSINOPHIL / ERYTHROCYTE COUNT / HEMATOCRIT / HEMOGLOBIN / LEUKOCYTE COUNT / LYMPHOCYTE / MEAN CORPUSCULAR HEMOGLOBIN / MEAN CORPUSCULAR HEMOGLOBIN CONCENTRATION / MEAN CORPUSCULAR VOLUME / MONOCYTE / NEUTROPHIL / NUCLEATED RED BLOOD CELLS / PLATELET COUNT: tissue Blood; for ALANINE AMINOTRANSFERASE / ALBUMIN / ALKALINE PHOSPHATASE / ASPARTATE AMINOTRANSFERASE / BLOOD UREA NITROGEN / CARBON DIOXIDE / CHLORIDE / CHOLESTEROL / CREATINE PHOSPHOKINASE / CREATININE / GLUCOSE / LACTATE DEHYDROGENASE / LIPASE / PHOSPHORUS / POTASSIUM / SODIUM / TOTAL BILIRUBIN / TOTAL PROTEIN / URIC ACID: tissue Plasma
# [1] = 12 mg/kg, 72 h, dose level High, time 3 day
# [2] = 12 mg/kg, 120 h, dose level High, time 5 day
# [3] = […], 72 h, dose 1.2 mg/Kg, dose level Low, time 3 day
# [4] = […], 120 h, dose 1.2 mg/Kg, dose level Low, time 5 day
smiles,measurement,setting,value
N[C@@H](Cc1ccc(N(CCCl)CCCl)cc1)C(=O)O,ABSOLUTE BASOPHIL,[1],0 CELLS/uL
same,ABSOLUTE EOSINOPHIL,[1],202.33 CELLS/uL
same,ABSOLUTE LYMPHOCYTE,[1],10252.33 CELLS/uL
same,ABSOLUTE MONOCYTE,[1],0 CELLS/uL
same,ABSOLUTE SEGMENTED NEUTROPHIL,[1],1345.33 CELLS/uL
same,BASOPHIL,[1],0%
same,EOSINOPHIL,[1],1.67%
same,ERYTHROCYTE COUNT,[1],5.67 x10E6/uL
same,HEMATOCRIT,[1],35.43%
same,HEMOGLOBIN,[1],13.33 G/DL
same,LEUKOCYTE COUNT,[1],11.8 x10E3/uL
same,LYMPHOCYTE,[1],86.67%
same,MEAN CORPUSCULAR HEMOGLOBIN,[1],23.57 pg
same,MEAN CORPUSCULAR HEMOGLOBIN CONCENTRATION,[1],37.63 G/DL
same,MEAN CORPUSCULAR VOLUME,[1],62.57 fL
same,MONOCYTE,[1],0%
same,NEUTROPHIL,[1],11.67%
same,NUCLEATED RED BLOOD CELLS,[1],0 /100WBC
same,PLATELET COUNT,[1],1376 x10E3/uL
same,ALANINE AMINOTRANSFERASE,[1],52 u/L
same,ALBUMIN,[1],4.27 G/DL
same,ALKALINE PHOSPHATASE,[1],346 u/L
same,ASPARTATE AMINOTRANSFERASE,[1],88.33 u/L
same,BLOOD UREA NITROGEN,[1],15 mg/dL
same,CARBON DIOXIDE,[1],25.67 mmol/L
same,CHLORIDE,[1],108.33 MEQ/L
same,CHOLESTEROL,[1],69.67 mg/dL
same,CREATINE PHOSPHOKINASE,[1],205 u/L
same,CREATININE,[1],0.14 mg/dL
same,GLUCOSE,[1],177 mg/dL
same,LACTATE DEHYDROGENASE,[1],85.33 u/L
same,LIPASE,[1],8.33 u/L
same,PHOSPHORUS,[1],14 mg/dL
same,POTASSIUM,[1],6.75 MEQ/L
same,SODIUM,[1],147.33 MEQ/L
same,TOTAL BILIRUBIN,[1],0.17 mg/dL
same,TOTAL PROTEIN,[1],5.9 G/DL
same,URIC ACID,[1],1.93 mg/dL
same,ABSOLUTE BASOPHIL,[2],0 CELLS/uL
same,ABSOLUTE EOSINOPHIL,[2],270.33 CELLS/uL
same,ABSOLUTE LYMPHOCYTE,[2],13398.33 CELLS/uL
same,ABSOLUTE MONOCYTE,[2],0 CELLS/uL
same,ABSOLUTE SEGMENTED NEUTROPHIL,[2],1364.67 CELLS/uL
same,BASOPHIL,[2],0%
same,EOSINOPHIL,[2],1.67%
same,ERYTHROCYTE COUNT,[2],5.64 x10E6/uL
same,HEMATOCRIT,[2],35.4%
same,HEMOGLOBIN,[2],13.53 G/DL
same,LEUKOCYTE COUNT,[2],15.03 x10E3/uL
same,LYMPHOCYTE,[2],89.33%
same,MEAN CORPUSCULAR HEMOGLOBIN,[2],24.03 pg
same,MEAN CORPUSCULAR HEMOGLOBIN CONCENTRATION,[2],38.23 G/DL
same,MEAN CORPUSCULAR VOLUME,[2],62.83 fL
same,MONOCYTE,[2],0%
same,NEUTROPHIL,[2],9%
same,NUCLEATED RED BLOOD CELLS,[2],0 /100WBC
same,PLATELET COUNT,[2],1253 x10E3/uL
same,ALANINE AMINOTRANSFERASE,[2],43.33 u/L
same,ALBUMIN,[2],4.17 G/DL
same,ALKALINE PHOSPHATASE,[2],352 u/L
same,ASPARTATE AMINOTRANSFERASE,[2],75.67 u/L
same,BLOOD UREA NITROGEN,[2],16 mg/dL
same,CARBON DIOXIDE,[2],26.67 mmol/L
same,CHLORIDE,[2],101.67 MEQ/L
same,CHOLESTEROL,[2],68.67 mg/dL
same,CREATINE PHOSPHOKINASE,[2],312.67 u/L
same,CREATININE,[2],0.24 mg/dL
same,GLUCOSE,[2],170.67 mg/dL
same,LACTATE DEHYDROGENASE,[2],98.33 u/L
same,LIPASE,[2],8 u/L
same,PHOSPHORUS,[2],13.23 mg/dL
same,POTASSIUM,[2],6.07 MEQ/L
same,SODIUM,[2],145.27 MEQ/L
same,TOTAL BILIRUBIN,[2],0.2 mg/dL
same,TOTAL PROTEIN,[2],5.97 G/DL
same,URIC ACID,[2],1.5 mg/dL
same,ABSOLUTE BASOPHIL,[3],0 CELLS/uL
same,ABSOLUTE EOSINOPHIL,[3],212 CELLS/uL
same,ABSOLUTE LYMPHOCYTE,[3],11254.33 CELLS/uL
same,ABSOLUTE MONOCYTE,[3],0 CELLS/uL
same,ABSOLUTE SEGMENTED NEUTROPHIL,[3],1000.33 CELLS/uL
same,BASOPHIL,[3],0%
same,EOSINOPHIL,[3],1.67%
same,ERYTHROCYTE COUNT,[3],5.5 x10E6/uL
same,HEMATOCRIT,[3],35.4%
same,HEMOGLOBIN,[3],13.5 G/DL
same,LEUKOCYTE COUNT,[3],12.47 x10E3/uL
same,LYMPHOCYTE,[3],90.33%
same,MEAN CORPUSCULAR HEMOGLOBIN,[3],24.53 pg
same,MEAN CORPUSCULAR HEMOGLOBIN CONCENTRATION,[3],38.13 G/DL
same,MEAN CORPUSCULAR VOLUME,[3],64.3 fL
same,MONOCYTE,[3],0%
same,NEUTROPHIL,[3],8%
same,NUCLEATED RED BLOOD CELLS,[3],0 /100WBC
same,PLATELET COUNT,[3],1333.67 x10E3/uL
same,ALANINE AMINOTRANSFERASE,[3],50 u/L
same,ALBUMIN,[3],4.43 G/DL
same,ALKALINE PHOSPHATASE,[3],430.67 u/L
same,ASPARTATE AMINOTRANSFERASE,[3],84.33 u/L
same,BLOOD UREA NITROGEN,[3],15.67 mg/dL
same,CARBON DIOXIDE,[3],24 mmol/L
same,CHLORIDE,[3],105.67 MEQ/L
same,CHOLESTEROL,[3],66.67 mg/dL
same,CREATINE PHOSPHOKINASE,[3],180.33 u/L
same,CREATININE,[3],0.21 mg/dL
same,GLUCOSE,[3],171.33 mg/dL
same,LACTATE DEHYDROGENASE,[3],164 u/L
same,LIPASE,[3],8.33 u/L
same,PHOSPHORUS,[3],13.1 mg/dL
same,POTASSIUM,[3],6.13 MEQ/L
same,SODIUM,[3],147.47 MEQ/L
same,TOTAL BILIRUBIN,[3],0.2 mg/dL
same,TOTAL PROTEIN,[3],6.33 G/DL
same,URIC ACID,[3],2.23 mg/dL
same,ABSOLUTE BASOPHIL,[4],0 CELLS/uL
same,ABSOLUTE EOSINOPHIL,[4],46.67 CELLS/uL
same,ABSOLUTE LYMPHOCYTE,[4],6013.67 CELLS/uL
same,ABSOLUTE MONOCYTE,[4],20.33 CELLS/uL
same,ABSOLUTE SEGMENTED NEUTROPHIL,[4],619.33 CELLS/uL
same,BASOPHIL,[4],0%
same,EOSINOPHIL,[4],0.67%
same,ERYTHROCYTE COUNT,[4],5.37 x10E6/uL
same,HEMATOCRIT,[4],34.83%
same,HEMOGLOBIN,[4],13.07 G/DL
same,LEUKOCYTE COUNT,[4],6.7 x10E3/uL
same,LYMPHOCYTE,[4],89.67%
same,MEAN CORPUSCULAR HEMOGLOBIN,[4],24.33 pg
same,MEAN CORPUSCULAR HEMOGLOBIN CONCENTRATION,[4],37.53 G/DL
same,MEAN CORPUSCULAR VOLUME,[4],64.87 fL
same,MONOCYTE,[4],0.33%
same,NEUTROPHIL,[4],9.33%
same,NUCLEATED RED BLOOD CELLS,[4],0 /100WBC
same,PLATELET COUNT,[4],1151 x10E3/uL
same,ALANINE AMINOTRANSFERASE,[4],47 u/L
same,ALBUMIN,[4],4.33 G/DL
same,ALKALINE PHOSPHATASE,[4],273.67 u/L
same,ASPARTATE AMINOTRANSFERASE,[4],74.67 u/L
same,BLOOD UREA NITROGEN,[4],14.33 mg/dL
same,CARBON DIOXIDE,[4],29.33 mmol/L
same,CHLORIDE,[4],101.67 MEQ/L
same,CHOLESTEROL,[4],74.67 mg/dL
same,CREATINE PHOSPHOKINASE,[4],206 u/L
same,CREATININE,[4],0.18 mg/dL
same,GLUCOSE,[4],137 mg/dL
same,LACTATE DEHYDROGENASE,[4],89.33 u/L
same,LIPASE,[4],8.67 u/L
same,PHOSPHORUS,[4],11.6 mg/dL
same,POTASSIUM,[4],5.85 MEQ/L
same,SODIUM,[4],147.57 MEQ/L
same,TOTAL BILIRUBIN,[4],0.2 mg/dL
same,TOTAL PROTEIN,[4],6.17 G/DL
same,URIC ACID,[4],0.8 mg/dL
